Reference: PubChem BioAssay (NCI)
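All cell lines were grown in 96-well plates and treated with compound for 48 hours. The concentration for 50% growth inhibition is given as GI50. TGI marks complete inhibition of growth.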

Experiments:
Test in all cases: NCI anticancer screen, dose series, 48 h
786-0 renal = tested on: 786-0 renal
HL-60(TB) leukemia = tested on: HL-60(TB) leukemia
HOP-62 NSCLC = tested on: HOP-62 NSCLC
IGROV1 ovarian = tested on: IGROV1 ovarian
KM12 colon = tested on: KM12 colon
NCI-H23 lung = tested on: NCI-H23 lung
OVCAR-8 ovarian = tested on: OVCAR-8 ovarian
SF-268 CNS = tested on: SF-268 CNS
SN12C renal = tested on: SN12C renal
UO-31 renal = tested on: UO-31 renal

SMILES	GI50 (786-0 renal) [µM]	TGI (786-0 renal) [µM]	GI50 (HL-60(TB) leukemia) [µM]	TGI (HL-60(TB) leukemia) [µM]	GI50 (HOP-62 NSCLC) [µM]	TGI (HOP-62 NSCLC) [µM]	GI50 (IGROV1 ovarian) [µM]	TGI (IGROV1 ovarian) [µM]	GI50 (KM12 colon) [µM]	TGI (KM12 colon) [µM]	GI50 (NCI-H23 lung) [µM]	TGI (NCI-H23 lung) [µM]	GI50 (OVCAR-8 ovarian) [µM]	TGI (OVCAR-8 ovarian) [µM]	GI50 (SF-268 CNS) [µM]	TGI (SF-268 CNS) [µM]	GI50 (SN12C renal) [µM]	TGI (SN12C renal) [µM]	GI50 (UO-31 renal) [µM]	TGI (UO-31 renal) [µM]
O=C(/C=C(\[O-])c1ccccc1)CCCCCCC(=O)/C=C(\[O-])c1ccccc1.O=C(/C=C(\[O-])c1ccccc1)CCCCCCC(=O)/C=C(\[O-])c1ccccc1.O=C(/C=C(\[O-])c1ccccc1)CCCCCCC(=O)/C=C(\[O-])c1ccccc1.[Y+3].[Y+3]	21.7	> 50	14	> 50	18.8	> 50	> 50	> 50	> 50	> 50	13.4	> 50	37.4	> 50	41.5	> 50	47.3	> 50	> 50	> 50
CCCCCNC(=O)CCCCCCCCCCCNC(=O)CCCCCCCCCCN1C=CC(=CC=C2C=CC(=O)C=C2)C=C1	–	> 100	–	8.83	–	> 100	–	> 100	–	> 100	–	> 100	–	> 100	–	> 100	–	> 100	–	> 100
CNCc1cccc2c1OCCOCCOCCNS(=O)(=O)c1ccc(cc1)-c1cnc(N)c(n1)C(=O)N2	1.22	2.89	0.452	1.89	1.27	2.96	0.513	3.89	1.22	2.98	2.22	7.72	1.61	10.4	1.04	3.31	1.22	3.79	9.82	23.1
N#CC1=C(N)Oc2c(ccc3ccccc23)C1c1cc2ccccc2n2nnnc12 (stereo not given)	1.28	> 100	0.26	16.7	0.812	> 100	0.82	> 100	0.628	> 100	3.45	> 100	2.85	> 100	3.23	> 100	0.99	> 100	0.725	> 100
COC(=O)C1CC(=O)O[C@H]1c1ccc(OC)c(OC)c1 (stereo not given in full)	–	> 100	–	> 100	–	> 100	–	> 100	–	> 100	–	> 100	–	> 100	–	> 100	–	> 100	–	> 100
NS(=O)(=O)c1cc2c(cc1Cl)NCNS2(=O)=O	–	> 100	–	> 100	–	> 100	–	> 100	–	> 100	–	> 100	–	> 100	–	> 100	–	> 100	–	> 100
O=C1C[C@@H]2OCC=C3C[N+]4([O-])CC[C@]56c7ccccc7N1[C@H]5[C@H]2[C@H]3C[C@@H]64 (stereo not given in full)	> 100	> 100	> 100	> 100	> 100	> 100	> 100	> 100	> 100	> 100	> 100	> 100	> 100	> 100	> 100	> 100	> 100	> 100	> 100	> 100
CCCCCCCCCCN=C(N)c1ccc(N2CCN(c3ccc(C(N)=NCCCCCCCCCC)cc3)CC2)cc1	16	> 50	2.17	> 50	11.3	29	2.83	> 50	2.9	17.8	3.23	> 50	2.62	> 50	2.27	11.1	2.19	15.2	22.6	> 50
O=C1NC(c2ccccc2Cl)Nc2ccccc21 (stereo not given)	–	> 100	–	16.4	–	> 100	–	> 100	–	> 100	–	> 100	–	> 100	–	> 100	–	> 100	–	> 100
Oc1c(Br)cc(Cl)cc1C(c1cc(Cl)cc(Br)c1O)C(Cl)(Cl)Cl	2.96	10.3	3.02	7.6	3.02	9.16	3.95	16.7	2.8	9.3	1.8	7.01	2.86	13	3.61	15.2	2.1	11.8	2.81	9.61
COc1ccc(C(C)Nc2cc(OC)c(OC)c(OC)c2)cc1 (stereo not given)	–	> 100	–	5.81	–	> 83.2	–	> 100	–	> 100	–	> 39.6	–	> 100	–	9.59	–	> 100	–	> 100
Cc1ccccc1NC(=O)CC(=O)NNCC(=O)Nc1nnc(-c2ccccc2)s1	–	> 100	–	85.3	–	> 100	–	> 100	–	> 100	–	> 100	–	> 100	–	> 100	–	> 100	–	> 100
O=S(=O)(Nc1ccccc1)c1ccc(C2CC3(Cl)C(Cl)=C(Cl)C2(Cl)C3(Cl)Cl)cc1 (stereo not given)	2.15	4.23	2.42	5.79	2.52	5.93	2.24	5.13	2.15	4.12	2.8	7.35	3.52	10.9	3.8	12.8	1.71	3.3	2.09	6.72
COC(=O)N/N=C(\C)c1sc(-c2nc(C)c(/C(C)=N/NC(=O)OC)s2)nc1C	–	> 100	–	> 100	–	> 100	–	> 100	–	> 100	–	> 100	–	> 100	–	> 100	–	> 100	–	> 100
COc1ccc([C@@H]2[C@@H](Oc3ccccc3)C(=O)N2c2cc(OC)c(OC)c(OC)c2)cc1F	0.198	> 100	0.24	0.609	0.0811	> 100	0.257	> 100	0.088	> 100	0.7	> 100	0.189	> 100	0.222	> 100	0.383	> 100	0.562	> 100
